Results reported in patent US9474790B2, “Stable, protracted GLP-1/glucagon receptor co-agonists for medical use” (Novo Nordisk A/S, priority 2013, dated 2016).
Numbered stars: 1 amine (or outer) side, 2 acyl side, 3 side chain; on linkers, the order of the positions; unused ones are H or OH. Square brackets hold non-standard residues; d marks the D form. Side chains are listed from the residue outwards. Peptide text beside a SMILES is read from it. * marks the point of attachment. C18 diacid = O=C(O)CCCCCCCCCCCCCCCCC(=O)*; γGlu = O=C(O)[C@H](CCC(=O)[*:2])N[*:1]; Ac4c = NC1(C(=O)O)CCC1; AEEA = NCCOCCOCC(=O)O; Aib = CC(C)(N)C(=O)O

These compounds were tested against T1, human glucagon receptor (Homo sapiens, UniProt P47871) (assay: Glucagon receptor potency, CRE luciferase reporter gene assay in BHK cells). Details: BHK cells expressing human glucagon receptor, read-out: EC50 GlucR.
T1 construct: expressed in transfected cells; host or cells: BHK cells (parent BHK570, CRE luciferase clone BHK/KZ10-20-48), clone pLJ6'-4-25
Assay type: cell-based
How it was run: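 EC50 (pM) comes from a four-parameter fit of luciferase luminescence after 3 h at 37 °C with compound at final 1×10EE-13–1×10EE-6 M. Cells: BHK570-derived line carrying human glucagon receptor plus CRE-luciferase, 5×10EE3/well, in assay medium with 2% ovalbumin, 0.2% Pluronic F-68.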

T1 sequence (P47871 26-477): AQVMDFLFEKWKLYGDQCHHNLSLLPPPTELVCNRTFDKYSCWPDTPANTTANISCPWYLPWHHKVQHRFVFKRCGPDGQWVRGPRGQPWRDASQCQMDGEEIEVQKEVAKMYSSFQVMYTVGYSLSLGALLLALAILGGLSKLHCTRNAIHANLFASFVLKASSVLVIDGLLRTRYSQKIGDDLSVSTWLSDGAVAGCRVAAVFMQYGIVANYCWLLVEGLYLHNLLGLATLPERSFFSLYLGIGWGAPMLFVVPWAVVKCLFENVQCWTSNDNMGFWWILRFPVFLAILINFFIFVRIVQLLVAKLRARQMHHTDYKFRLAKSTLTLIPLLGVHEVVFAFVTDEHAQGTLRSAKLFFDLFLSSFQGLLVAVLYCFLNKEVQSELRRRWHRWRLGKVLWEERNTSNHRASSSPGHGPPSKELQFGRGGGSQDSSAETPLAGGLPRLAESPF

SMILES	EC50 [nM]
CC(C)C[C@H](NC(=O)[C@H](CC(=O)O)NC(=O)[C@H](CC(C)C)NC(=O)[C@H](Cc1ccc(O)cc1)NC(=O)[C@H](CCCNC(=N)N)NC(=O)[C@H](CO)NC(=O)[C@H](CC(C)C)NC(=O)[C@H](CC(=O)O)NC(=O)[C@H](CO)NC(=O)[C@@H](NC(=O)[C@H](Cc1ccccc1)NC(=O)[C@@H](NC(=O)CNC(=O)[C@H](CCC(N)=O)NC(=O)C1(NC(=O)[C@@H](N)Cc2c[nH]cn2)CCC1)[C@@H](C)O)[C@@H](C)O)C(=O)N[C@@H](CCCNC(=N)N)C(=O)N[C@@H](CCCNC(=N)N)C(=O)N[C@@H](C)C(=O)N[C@@H](CCCNC(=N)N)C(=O)N[C@@H](CC(=O)O)C(=O)N[C@@H](Cc1ccccc1)C(=O)N[C@H](C(=O)N[C@@H](CCC(N)=O)C(=O)N[C@@H](Cc1c[nH]c2ccccc12)C(=O)N[C@@H](CC(C)C)C(=O)N[C@@H](CC(C)C)C(=O)N[C@@H](CCCCNC(=O)CC[C@H](NC(=O)CC[C@H](NC(=O)COCCOCCNC(=O)COCCOCCNC(=O)CC[C@H](NC(=O)CC[C@H](NC(=O)CCCCCCCCCCCCCCCCC(=O)O)C(=O)O)C(=O)O)C(=O)O)C(=O)O)C(=O)N[C@H](C(N)=O)[C@@H](C)O)C(C)C [Example 46, N^ε28-[(4S)-4-carboxy-4-[[(4S)-4-carboxy-4-[[2-[2-[2-[[2-[2-[2-[[(4S)-4-carboxy-4-[[(4S)-4-carboxy-4-(17-carboxyheptadecanoylamino)butanoyl]amino]butanoyl]amino]ethoxy]ethoxy]acetyl]amino]ethoxy]ethoxy]acetyl]amino]butanoyl]amino]butanoyl]-[Acb2,Leu10,Arg12,Leu16,Arg20,Leu27,Lys28]-Glucagon amide] (H-H[Ac4c]QGTFTSDLSRYLDLRRARDFVQWLLK([γGlu-γGlu-AEEA-AEEA-γGlu-γGlu-C18 diacid])T-NH2; N-terminus assumed)	0.016
CC(C)C[C@H](NC(=O)[C@H](Cc1ccc(O)cc1)NC(=O)[C@H](CCCCN)NC(=O)[C@H](CO)NC(=O)[C@H](CC(C)C)NC(=O)[C@H](CC(=O)O)NC(=O)[C@H](CO)NC(=O)[C@@H](NC(=O)[C@H](Cc1ccccc1)NC(=O)[C@@H](NC(=O)CNC(=O)[C@H](CCC(N)=O)NC(=O)C(C)(C)NC(=O)[C@@H](N)Cc1c[nH]cn1)[C@@H](C)O)[C@@H](C)O)C(=O)N[C@@H](CCC(=O)O)C(=O)N[C@@H](CO)C(=O)N[C@@H](CCCCN)C(=O)N[C@@H](CCCNC(=N)N)C(=O)N[C@@H](C)C(=O)N[C@@H](CCCNC(=N)N)C(=O)N[C@@H](CCC(=O)O)C(=O)N[C@@H](Cc1ccccc1)C(=O)N[C@H](C(=O)N[C@@H](CCC(N)=O)C(=O)N[C@@H](Cc1c[nH]c2ccccc12)C(=O)N[C@@H](CC(C)C)C(=O)N[C@@H](CC(C)C)C(=O)N[C@@H](CCCCNC(=O)CC[C@H](NC(=O)CC[C@H](NC(=O)[C@H](CO)NC(=O)[C@H](CCC(=O)O)NC(=O)[C@H](CO)NC(=O)CC[C@H](NC(=O)CC[C@H](NC(=O)CCCCCCCCCCCCCCCCC(=O)O)C(=O)O)C(=O)O)C(=O)O)C(=O)O)C(=O)N[C@H](C(N)=O)[C@@H](C)O)C(C)C [Example 52] (H-H[Aib]QGTFTSDLSKYLESKRAREFVQWLLK([γGlu-γGlu-Ser-Glu-Ser-γGlu-γGlu-C18 diacid])T-NH2; N-terminus assumed)	0.016
CC(C)C[C@H](NC(=O)[C@H](Cc1ccc(O)cc1)NC(=O)[C@H](CCCCN)NC(=O)[C@H](CO)NC(=O)[C@H](CC(C)C)NC(=O)[C@H](CC(=O)O)NC(=O)[C@H](CO)NC(=O)[C@@H](NC(=O)[C@H](Cc1ccccc1)NC(=O)[C@@H](NC(=O)CNC(=O)[C@H](CCC(N)=O)NC(=O)C(C)(C)NC(=O)[C@@H](N)Cc1c[nH]cn1)[C@@H](C)O)[C@@H](C)O)C(=O)N[C@@H](CCC(=O)O)C(=O)N[C@@H](CO)C(=O)N[C@@H](CCCNC(=N)N)C(=O)N[C@@H](CCCNC(=N)N)C(=O)N[C@@H](C)C(=O)N[C@@H](CCCNC(=N)N)C(=O)N[C@@H](CCC(=O)O)C(=O)N[C@@H](Cc1ccccc1)C(=O)N[C@H](C(=O)N[C@@H](CCC(N)=O)C(=O)N[C@@H](Cc1c[nH]c2ccccc12)C(=O)N[C@@H](CC(C)C)C(=O)N[C@@H](CC(C)C)C(=O)N[C@@H](CCCCNC(=O)CC[C@H](NC(=O)CC[C@H](NC(=O)CC[C@H](NC(=O)CCCCCCCCCCCCCCCCC(=O)O)C(=O)O)C(=O)O)C(=O)O)C(=O)N[C@H](C(N)=O)[C@@H](C)O)C(C)C [Example 41, N^ε28-[(4S)-4-carboxy-4-[[(4S)-4-carboxy-4-[[(4S)-4-carboxy-4-(17-carboxyheptadecanoylamino)butanoyl]amino]butanoyl]amino]butanoyl]-[Aib2,Leu10,Glu15, Arg20,Glu21,Leu27,Lys28]-Glucagon amide] (H-H[Aib]QGTFTSDLSKYLESRRAREFVQWLLK([γGlu-γGlu-γGlu-C18 diacid])T-NH2; N-terminus assumed)	0.029

The next lines start with the values.

EC50 [nM]	SMILES
0.005	CC(C)C[C@H](NC(=O)[C@H](Cc1ccc(O)cc1)NC(=O)[C@H](CCCCN)NC(=O)[C@H](CO)NC(=O)[C@H](CC(C)C)NC(=O)[C@H](CC(=O)O)NC(=O)[C@H](CO)NC(=O)[C@@H](NC(=O)[C@H](Cc1ccccc1)NC(=O)[C@@H](NC(=O)CNC(=O)[C@H](CCC(N)=O)NC(=O)C1(NC(=O)[C@@H](N)Cc2c[nH]cn2)CCC1)[C@@H](C)O)[C@@H](C)O)C(=O)N[C@@H](CCC(=O)O)C(=O)N[C@@H](CO)C(=O)N[C@@H](CCCCN)C(=O)N[C@@H](CCCNC(=N)N)C(=O)N[C@@H](C)C(=O)N[C@@H](CCCNC(=N)N)C(=O)N[C@@H](CCC(=O)O)C(=O)N[C@@H](Cc1ccccc1)C(=O)N[C@H](C(=O)N[C@@H](CCC(N)=O)C(=O)N[C@@H](Cc1c[nH]c2ccccc12)C(=O)N[C@@H](CC(C)C)C(=O)N[C@@H](CC(C)C)C(=O)N[C@@H](CCCCNC(=O)CC[C@H](NC(=O)CC[C@H](NC(=O)[C@H](CO)NC(=O)[C@H](CCC(=O)O)NC(=O)[C@H](CO)NC(=O)CC[C@H](NC(=O)CC[C@H](NC(=O)CCCCCCCCCCCCCCCCC(=O)O)C(=O)O)C(=O)O)C(=O)O)C(=O)O)C(=O)N[C@H](C(N)=O)[C@@H](C)O)C(C)C [Example 68, N^ε28-[(4S)-4-carboxy-4-[[(4S)-4-carboxy-4-[[(2S)-2-[[(2S)-4-carboxy-2-[[(2S)-2-[[(4S)-4-carboxy-4-[[(4S)-4-carboxy-4-(17-carboxyheptadecanoylamino)butanoyl]amino]butanoyl]amino]-3-hydroxypropanoyl]amino]butanoyl]amino]-3-hydroxypropanoyl]amino]butanoyl]amino]butanoyl]-[Acb2,Leu10,Glu15,Lys17,Arg20,Glu21,Leu27,Lys28]-Glucagon amide] (H-H[Ac4c]QGTFTSDLSKYLESKRAREFVQWLLK([γGlu-γGlu-Ser-Glu-Ser-γGlu-γGlu-C18 diacid])T-NH2; N-terminus assumed)
0.054	CC(C)C[C@H](NC(=O)[C@H](Cc1ccc(O)cc1)NC(=O)[C@H](CCCCN)NC(=O)[C@H](CO)NC(=O)[C@H](CC(C)C)NC(=O)[C@H](CC(=O)O)NC(=O)[C@H](CO)NC(=O)[C@@H](NC(=O)[C@H](Cc1ccccc1)NC(=O)[C@@H](NC(=O)CNC(=O)[C@H](CCC(N)=O)NC(=O)C(C)(C)NC(=O)[C@@H](N)Cc1c[nH]cn1)[C@@H](C)O)[C@@H](C)O)C(=O)N[C@@H](CCC(=O)O)C(=O)N[C@@H](CO)C(=O)N[C@@H](CCCNC(=N)N)C(=O)N[C@@H](CCCNC(=N)N)C(=O)N[C@@H](C)C(=O)N[C@@H](CCCNC(=N)N)C(=O)N[C@@H](CCC(=O)O)C(=O)N[C@@H](Cc1ccccc1)C(=O)N[C@H](C(=O)N[C@@H](CCC(N)=O)C(=O)N[C@@H](Cc1c[nH]c2ccccc12)C(=O)N[C@@H](CC(C)C)C(=O)N[C@@H](CC(C)C)C(=O)N[C@@H](CCCCNC(=O)CC[C@H](NC(=O)CC[C@H](NC(=O)COCCOCCNC(=O)COCCOCCNC(=O)CC[C@H](NC(=O)CC[C@H](NC(=O)CCCCCCCCCCCCCCCCC(=O)O)C(=O)O)C(=O)O)C(=O)O)C(=O)O)C(=O)N[C@H](C(N)=O)[C@@H](C)O)C(C)C [Example 60, N^ε28-[(4S)-4-carboxy-4-[[(4S)-4-carboxy-4-[[2-[2-[2-[[2-[2-[2-[[(4S)-4-carboxy-4-[[(4S)-4-carboxy-4-(17-carboxyheptadecanoylamino)butanoyl]amino]butanoyl]amino]ethoxy]ethoxy]acetyl]amino]ethoxy]ethoxy]acetyl]amino]butanoyl]amino]butanoyl]-[Aib2,Leu10,Glu15,Arg20,Glu21,Leu27,Lys28]-Glucagon amide] (H-H[Aib]QGTFTSDLSKYLESRRAREFVQWLLK([γGlu-γGlu-AEEA-AEEA-γGlu-γGlu-C18 diacid])T-NH2; N-terminus assumed)
